The term IC50 denotes the midpoint of a concentration-inhibition curve.

The assay deals with T1, human LPA1 (Homo sapiens, UniProt Q92633).
T1 construct: the full-length cDNA for human LPA1 was obtained by PCR of the reverse transcription reaction; expressed in transfected cells
T1 sequence (Q92633 whole entry): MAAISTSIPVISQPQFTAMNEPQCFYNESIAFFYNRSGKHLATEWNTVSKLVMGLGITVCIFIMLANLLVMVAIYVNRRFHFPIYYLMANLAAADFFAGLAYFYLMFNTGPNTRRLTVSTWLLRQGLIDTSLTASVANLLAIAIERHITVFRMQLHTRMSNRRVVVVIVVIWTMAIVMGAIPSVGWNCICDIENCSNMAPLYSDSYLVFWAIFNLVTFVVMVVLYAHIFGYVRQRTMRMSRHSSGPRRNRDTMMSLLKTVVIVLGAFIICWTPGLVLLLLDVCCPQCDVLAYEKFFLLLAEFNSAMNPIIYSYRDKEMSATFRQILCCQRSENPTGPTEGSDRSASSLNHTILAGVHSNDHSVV
The experiment in a line: LPA1 calcium flux assay. Conditions: CHO cells expressing human LPA1, stimulated with 10 nM LPA; read-out: HLPA1 Ca Flux IC50. Format: cell-based. Here is the method: A 1.1 kb cDNA encoding the human LPA1 receptor was cloned from human lung. Human lung RNA (Clontech Laboratories, Inc. USA) was reverse transcribed using the RETROscript kit (Ambion, Inc.) and the full-length cDNA for human LPA1 was obtained by PCR of the reverse transcription reaction. The nucleotide sequence of the cloned human LPA1 was determined by sequencing and confirmed to be identical to the published human LPA1 sequence (An et al. Biochenm. Biophys. Res. Commun. 231:619 (1997). The cDNA was cloned into the pCDNA5/FRT expression plasmid and transfected in CHO cells using lipofectamine 2000 (Invitrogen Corp., USA). Clones stably expressing human LPA1 were selected using hygromycin and identified as cells that show Ca-influx in response to LPA.
Human LPA1 or LPA3 expressing CHO cells are seeded at 20,000-45,000 cells per well in a 96-well poly-D-lysine coated plate one or two days before the assay. Prior to the assay, the cells are washed once with PBS and then cultured in serum-free media overnight. On the day of the assay, a calcium indicator dye (Calcium 4, Molecular Devices) in assay buffer (HBSS with Ca^2+ and Mg^2+ and containing 20 mM Hepes and 0.3% fatty-acid free human serum albumin) is added to each well and incubation continued for 1 hour at 37° C. 10 μl of test compounds in 2.5% DMSO are added to the cells and incubation continued at room temperature for 30 minutes. Cells are the stimulated by the addition of 10 nM LPA and intracellular Ca^2+ measured using the Flexstation 3 (Molecular Devices). IC50s are determined using Graphpad prism analysis of drug titration curves.
Background: Calcium assays in cells follow changes in intracellular calcium, usually with a dye or a luminescent sensor.
Consider `Cc1cccc(SCC(O)c2c(C)noc2-c2ccc(-c3ccc(C4(C(=O)NS(C)(=O)=O)CC4)cc3)cc2)c1` (centres unmarked) [Compound 2-13, N-(1-{4′-[4-(1-Hydroxy-2-m-tolylsulfanyl-ethyl)-3-methyl-isoxazol-5-yl]-biphenyl-4-yl}-cyclopropanecarbonyl)-methanesulfonamide], for which the IC50 was < 300 nM. Next, `Cc1noc(-c2ccc(-c3ccccc3C3(C(=O)O)CC3)cc2)c1/C=C/CCc1ccccc1` [Compound 1-63, 1-{4′-[3-Methyl-4-((E)-4-phenyl-but-1-enyl)-isoxazol-5-yl]-biphenyl-2-yl}-cyclopropanecarboxylic acid]: 1000 to 50000 nM; `Cc1noc(-c2ccc(-c3ccc(C4(C(=O)O)CC4)cc3)cc2)c1CC(=O)N1Cc2ccccc2C1` [Compound 1-66, 1-(4′-{4-[2-(1,3-Dihydro-isoindol-2-yl)-2-oxo-ethyl]-3-methyl-isoxazol-5-yl}-biphenyl-4-yl)-cyclopropanecarboxylic acid]: > 50000 nM. Next, `Cc1noc(-c2ccc(-c3ccc(CC(=O)O)cc3)cc2)c1CSCCc1ccccc1` [Compound 1-108, [4′-(3-Methyl-4-phenethylsulfanylmethyl-isoxazol-5-yl)-biphenyl-4-yl]-acetic acid]: < 300 nM. Next, `Cc1noc(-c2ccc(-c3ccc(C4(C(=O)O)CC4)cc3)cc2)c1CCC(=O)Nc1ccccc1` [Compound 1-43, 1-{4′-[3-Methyl-4-(2-phenylcarbamoyl-ethyl)-isoxazol-5-yl]-biphenyl-4-yl}-cyclopropanecarboxylic acid]: > 50000 nM; `Cc1noc(-c2ccc(-c3ccc(C4(C(=O)O)CC4)cc3)cc2)c1C[S+]([O-])Cc1ccccc1` (centres unmarked) [Compound 1-52, 1-[4′-(3-Methyl-4-phenylmethanesulfinylmethyl-isoxazol-5-yl)-biphenyl-4-yl]-cyclopropanecarboxylic acid]: > 50000 nM. For `Cc1noc(-c2ccc(-c3ccc(CC(=O)O)cc3)cc2)c1CC(F)(F)CCc1ccccc1` [Compound 1-170, {4′-[4-(2,2-Difluoro-4-phenyl-butyl)-3-methyl-isoxazol-5-yl]-biphenyl-4-yl}-acetic acid], the IC50 was < 300 nM. Next, `Cc1noc(-c2ccc(-c3ccc(C4(C(=O)O)CC4)cc3)cc2)c1CN(C)CCc1ccccc1` [Compound 1-67, 1-(4′-{3-Methyl-4-[(methyl-phenethyl-amino)-methyl]-isoxazol-5-yl}-biphenyl-4-yl)-cyclopropanecarboxylic acid]: < 300 nM; `Cc1noc(-c2ccc(-c3ccccc3CC(=O)O)cc2)c1NC(C)CCCO` (centres unmarked) [Compound 1-231, {4′-[4-(4-Hydroxy-1-methyl-butylamino)-3-methyl-isoxazol-5-yl]-biphenyl-2-yl}-acetic acid]: 1000 to 50000 nM. In the case of `Cc1noc(-c2ccc(-c3ccc(C4(CC(=O)O)CC4)cc3)cc2)c1CSCCc1ccccc1` [Compound 1-125, {1-[4′-(3-Methyl-4-phenethylsulfanylmethyl-isoxazol-5-yl)-biphenyl-4-yl]-cyclopropyl}-acetic acid] it was < 300 nM. In the case of `Cc1noc(-c2ccc(-c3ccc(CC4(C(=O)O)CC4)cc3)cc2)c1C(O)CCCc1ccccc1` (centres unmarked) [Compound 1-250, 1-{4′-[4-(1-Hydroxy-4-phenyl-butyl)-3-methyl-isoxazol-5-yl]-biphenyl-4-ylmethyl}-cyclopropanecarboxylic acid], the IC50 is < 300 nM. Next, `Cc1noc(-c2ccc(-c3ccc(C4CC4C(=O)O)cc3)cc2)c1[C@H](O)COCc1ccccc1` (single isomer, unassigned) [Compound 1-216]: < 300 nM; `Cc1noc(-c2ccc(-c3ccc(C4(C(=O)O)CC4)cc3)cc2)c1C(O)CCCc1ccncc1` (centres unmarked) [Compound 1-261, 1-{4′-[4-(1-Hydroxy-4-pyridin-4-yl-butyl)-3-methyl-isoxazol-5-yl]-biphenyl-4-yl}-cyclopropanecarboxylic acid]: < 300 nM; `CCOc1cccc(Nc2c(C)noc2-c2ccc(-c3ccc(C4(C(=O)O)CC4)cc3)cc2)n1` [Compound 1-294, 1-{4′-[4-(6-Ethoxy-pyridin-2-ylamino)-3-methyl-isoxazol-5-yl]-biphenyl-4-yl}-cyclopropanecarboxylic acid]: < 300 nM. `Cc1noc(-c2ccc(-c3ccc(C4(C(=O)O)CC4)cc3)cc2)c1CC[S+]([O-])Cc1ccccc1` (centres unmarked) [Compound 1-84, 1-{4′-[3-Methyl-4-(2-phenylmethanesulfinyl-ethyl)-isoxazol-5-yl]-biphenyl-4-yl}-cyclopropanecarboxylic acid]: the IC50 lay within 1000 to 50000 nM. In the case of `Cc1noc(-c2ccc(-c3ccc(C#CC(=O)O)cc3)cc2)c1N[C@@H](C)CCc1cccc(C(F)(F)F)c1` [Compound 1-307, (4′-{3-Methyl-4-[(S)-1-methyl-3-(3-trifluoromethyl-phenyl)-propylamino]-isoxazol-5-yl}-biphenyl-4-yl)-propynoic acid] it was 300 to 1000 nM; in that of `Cc1noc(-c2ccc(-c3ccc([C@H]4C[C@H]4C(=O)O)cc3)cc2)c1CSCCc1ccccc1` (single isomer, unassigned) [Compound 1-149, (cis)-2-[4′-(3-Methyl-4-phenethylsulfanylmethyl-isoxazol-5-yl)-biphenyl-4-yl]-cyclopropanecarboxylic acid], < 300 nM; in that of `Cc1noc(-c2ccc(-c3ccc(CCC(=O)O)cc3)cc2)c1CSCCc1ccccc1` [Compound 1-191, 3-[4′-(3-Methyl-4-phenethylsulfanylmethyl-isoxazol-5-yl)-biphenyl-4-yl]-propionic acid], < 300 nM.

With `Cc1noc(-c2ccc(-c3ccc(C(C)(C)C(=O)O)cc3)cc2)c1CSCCc1ccccc1` [Compound 1-133, 2-Methyl-2-[4′-(3-methyl-4-phenethylsulfanylmethyl-isoxazol-5-yl)-biphenyl-4-yl]-propionic acid], the IC50 was < 300 nM. For the compound `Cc1noc(-c2ccc(-c3cccc(C(=O)O)c3)cc2)c1NC(=O)CCc1ccccc1` [Compound 1-1, 4′-[3-Methyl-4-(3-phenyl-propionylamino)-isoxazol-5-yl]-biphenyl-3-carboxylic acid], the IC50 was 1000 to 50000 nM. In the case of `Cc1noc(-c2ccc(-c3ccc(C4(C(=O)O)CC4)cc3)cc2)c1Nc1cccc(OC(C)(C)C)n1` [Compound 1-301, 1-{4′-[4-(6-tert-Butoxy-pyridin-2-ylamino)-3-methyl-isoxazol-5-yl]-biphenyl-4-yl}-cyclopropanecarboxylic acid] it was < 300 nM; in that of `CCOC(CCCc1ccccc1)c1c(C)noc1-c1ccc(-c2ccc(C3(C(=O)O)CC3)cc2)cc1` (centres unmarked) [Compound 1-147, 1-{4′-[4-(1-Ethoxy-4-phenyl-butyl)-3-methyl-isoxazol-5-yl]-biphenyl-4-yl}-cyclopropanecarboxylic acid], 300 to 1000 nM. In the case of `Cc1noc(-c2ccc(-c3ccc(C4(C(=O)O)CC4)cc3)cc2)c1N(C)C(C)CCc1ccccc1` (centres unmarked) [Compound 1-267, 1-(4′-{3-Methyl-4-[methyl-(1-methyl-3-phenyl-propyl)-amino]-isoxazol-5-yl}-biphenyl-4-yl)-cyclopropanecarboxylic acid] it was < 300 nM; in that of `Cc1noc(-c2ccc(-c3ccc(C4(C(=O)O)CC4)cc3)cc2)c1NC(C)/C=C/c1ccccc1` (centres unmarked) [Compound 1-288, 1-{4′-[3-Methyl-4-((E)-1-methyl-3-phenyl-allylamino)-isoxazol-5-yl]-biphenyl-4-yl}-cyclopropanecarboxylic acid], < 300 nM. In the case of `Cc1noc(-c2ccc(-c3ccc(C4(C(=O)O)CC4)cc3)cc2)c1CCOCc1cccnc1` [Compound 1-76, 1-(4′-{3-Methyl-4-[2-(pyridin-3-ylmethoxy)-ethyl]-isoxazol-5-yl}-biphenyl-4-yl)-cyclopropanecarboxylic acid], the IC50 was 1000 to 50000 nM. Next, `Cc1noc(-c2ccc(-c3ccc(C4(C(=O)O)CC4)cc3)cc2)c1Nc1cccc(C(=O)NCC(C)(C)C)n1` [Compound 1-300, 1-(4′-{4-[6-(2,2-Dimethyl-propylcarbamoyl)-pyridin-2-ylamino]-3-methyl-isoxazol-5-yl}-biphenyl-4-yl)-cyclopropanecarboxylic acid]: < 300 nM; `Cc1noc(-c2ccc(-c3ccc(C4(C(=O)O)CC4)cc3)cc2)c1CC(=O)N[C@H]1c2ccccc2C[C@H]1O` [Compound 1-92, 1-(4′-{4-[((1S,2R)-2-Hydroxy-indan-1-ylcarbamoyl)-methyl]-3-methyl-isoxazol-5-yl}-biphenyl-4-yl)-cyclopropanecarboxylic acid]: 1000 to 50000 nM. Take `Cc1noc(-c2ccc(-c3ccc(C4(C(=O)O)CC4)cc3)cc2)c1C(=O)CCCc1ccccc1` [Compound 1-124, 1-{4′-[3-Methyl-4-(4-phenyl-butyryl)-isoxazol-5-yl]-biphenyl-4-yl}-cyclopropanecarboxylic acid]: the IC50 is 1000 to 50000 nM. In the case of `Cc1noc(-c2ccc(-c3ccc(C4(C(=O)O)CC4)cc3)cc2)c1NC(C)CCc1ccccc1` (single isomer, unassigned) [Compound 1-220, 1-{4′-[3-Methyl-4-(1-methyl-3-phenyl-propylamino)-isoxazol-5-yl]-biphenyl-4-yl}-cyclopropanecarboxylic acid], the IC50 was < 300 nM.

The values are drawn from US9624182B2, “Compounds as lysophosphatidic acid receptor antagonists” (Amira Pharmaceuticals, Inc., priority 2009, dated 2017).
